How the values were obtained:
Type in all cases: in vivo
wild, free-ranging rats [1] = assay: Model selection / model averaging of blend-trial response variables (Visitation, Contact, Marking, Intensity); details: for relative importance of variable (model averaging), Contact: response variable Contact (chew or bite marks); for relative importance of variable (model averaging), Marking: response variable Marking (urination and/or faecal marking); for relative importance of variable (model averaging), Visitation: response variable Visitation (tracking), presence/absence of compound in lure as predictor
Description: (§1) Trials were designed to compare the performance of each lure relative to the best performing lure after each successive trial phase. The elimination of poorer performing lures allowed for higher levels of internal replication and the inclusion of additional multi-component blend lures to Phase Two. Lures were scored using the presence/absence of rat tracks on inked tracking cards to provide a proportion of tracking cards receiving species-specific visitations and hereafter termed the ‘tracking rate’. The tracking rate was used to direct the elimination process. Lures that were statistically less attractive than the best performing lure after Phase One trials were eliminated from subsequent trials. Three behavioural response variables were scored that were designed to quantify the strength of the visit to the respective lure: (1) the presence of urination and/or faecal marking in or on the tracking tunnel and hereafter termed ‘Marking’; (2) the presence of chew or bite marks on the microtube and/or tracking tunnel and hereafter termed ‘Contact’ and; (3) the amount of footprints on each tracking card that received a visitation. This was measured using a 10 cm×47 cm Perspex sheet with a grid made up of 1 cm^2 squares. The number of squares with species-specific tracks was calculated to provide a score, hereafter termed ‘Intensity’. Intensity was designed to identify lures that generated intensive or multiple visits by an individual or that elicited visits from multiple individuals.
A multi-model information-theoretic approach was used at the end of Phase Two to identify the models of best fit for each of the four response variables (Tracking, Marking, Contact and Intensity) and to investigate possible synergistic effects between compounds used in multi-component blends. Data for each lure comprising one or any combination of A6, B6, C6, F7 and/or 17 were collated. Model averaging was used to identify each compounds relative importance to each response variable.
Binomial tests were used to compare the performance of each lure to the best performing lure at the end of each in-field trial phase and drive the process. Tracking, Marking and Contact models were run as generalised linear mixed-effects models (GLMM) with a binomial distribution and logit link and a linear mixed-effects model (LMM) for Intensity. The presence/absence of compounds in each lure were used as predictor variables.
A ‘Global’ model was firstly generated containing all fixed-effect parameters, with ‘Site’ and/or ‘Transect’ and/or ‘Trial Phase” included as random effects. This allowed for the examination of both spatial (Site and Transect) and temporal (Trial Phase) impacts on the data. ‘Transect’ nested within ‘Site’ and ‘Trial Phase’ provided an improved model fit compared to any other random effect model, therefore all models were run with the inclusion of ‘Transect’ nested within ‘Site’ and ‘Trial Phase” as random effects. Akaike's information criterion corrected for small sample size (AICc) was used to compare models. Corresponding Akaike differences (Δi), the number of parameters (K), Akaike weights (Wi) and log-likelihoods (LL) were also calculated. As the model set was not balanced i.e., there were not equal numbers of models for each variable a cut-off of 10AICC was used (Bolker et al. 2009) to create the model averaging candidate model-sets from the relative importance of variables were derived. Correlations between the response variables used in linear regression models were examined using Dice's similarity coefficient (QS) due to the binary nature of three of the four variables (Choi et al. 2010).
Statistical significance was assumed wherever P≤0.05. All statistical analysis was run in R (R Core Team 2016), with package Ime4 (Bates et al. 2015) used for mixed-effects models and MuMIn (Barton 2016) used for AICc scores, weights, deltas, log-likelihoods and model averaging (using the dredge function).

wild, free-ranging rats [2] = assay: as above; details: response variable Intensity (footprint squares); Phase removed as random effect
wild, free-ranging rats [3] = assay: Field trials of single-compound synthetic lures in tracking tunnels (tracking rate); details: for attractiveness relative to peanut butter standard and control (aggregated tracking rate): tracking rate aggregated for all seven concentrations 10,000 to 0.01 ppm in fractionated coconut oil, one night, FIG. 2
Method: Synthetic lures comprising a single compound mixed in a carrier medium (fractionated coconut oil) were presented to wild, free-ranging rats at 7 concentrations, decreasing in orders of magnitude from 10,000 ppm to 0.01 ppm. The compounds and concentrations used are set out in Table 2. Lures were presented in 1.7 mL Eppendorf microtubes secured to the inside wall of tracking tunnels using a cable tie. Inked cards were placed in each tunnel to quantify the visitation and identity of species visiting lures. Lures were randomly assigned along transects, with a minimum 25-m spacing between lures and with transects separated by 200 m. A control (fractionated coconut oil only) and standard (peanut butter) were assigned to each transect, with each transect comprising of lures presented at the same concentration. The order of transects was randomised for each trial. All lures were left in situ for one rain-free night. Lures were scored using the presence of rat tracks on inked cards to provide a proportion of inked cards receiving a visit for each lure, hereafter termed the “tracking rate”. Binomial tests were used to compare the tracking rate of each individual lure against peanut butter at the end of the trial period. Binomial tests were run in R (R Core Team 2013). Ten trials were undertaken at independent sites across the Wainuiomata and Orongorongo catchment region and within the Akatarawa and Pakuratahi Forest Parks, Wellington region (41° 15S, 175° 00E), New Zealand between 15 Jul. 2015 and 11 Nov. 2015.

wild, free-ranging rats [4] = assay: Blend trials (Phase One and Phase Two) of single and multi-component lures in tracking tunnels; details: Phase One; for performance versus top performing lure CF (binomial test): P<0.03
Description: Lure preparation and presentation methods followed those outlined above.
For Phase One, A6, B6, C6, F7 and 17 identified as in Table 2 were presented. For example, A6 and B6 were blended together in equal parts to make a dyad lure coded AB. Each trial consisted of a single spatially stratified transect. Each strata contained one of each lure, a control (FCO) and the standard (peanut butter). The number of transect strata varied between trials according to site conditions i.e., track length and accessibility. Lures were spaced at 50 m, with the order of lures randomised within transect strata and between each trial. All lures were left in situ for two rain-free night. Ten trials were undertaken at independent sites across the Greater Wellington region and Richmond Range, Nelson, New Zealand between 11 Nov. 2015 and 25 Feb. 2016.
For Phase Two, the best performing single and dyad lures identified after Phase One were presented. In addition, all possible triad, tetrad and pentad blend combinations of A, B, C, F and I were created and trialled. […]
as §1, with “The elimination of poorer performing lures allowed for higher levels of internal replication and the inclusion of additional multi-component blend lures to Phase Two.” left out, “The tracking rate was used to direct the elimination process. Lures that were statistically less attractive than the best performing lure after Phase One trials were eliminated from subsequent trials.” left out, “Intensity was designed to identify lures that generated intensive or multiple visits by an individual or that elicited visits from multiple individuals.” left out

| Compound | relative importance of variable (model averaging), Contact (wild, free-ranging rats [1]) | relative importance of variable (model averaging), Marking (wild, free-ranging rats [1]) | relative importance of variable (model averaging), Visitation (wild, free-ranging rats [1]) | relative importance of variable (model averaging), Intensity (wild, free-ranging rats [2]) | attractiveness relative to peanut butter standard and control (aggregated tracking rate) (wild, free-ranging rats [3]) | performance versus top performing lure CF (binomial test) (wild, free-ranging rats [4]) | tracking rate (wild, free-ranging rats [4]; 10 sites, n=30 per lure, two nights, summer months) | trend of attraction with concentration (wild, free-ranging rats [3]; seven concentrations 10,000 to 0.01 ppm) |
| --- | --- | --- | --- | --- | --- | --- | --- | --- |
| CC(C)CCO [A, isoamyl alcohol] | 0.68 | 0.95 | 0.69 | 0.85 | more attractive than the peanut butter standard | – | – | – |
| CCCCCCO [B, 1-hexanol] | 0.50 | 0.95 | 0.90 | 0.89 | more attractive than the peanut butter standard | statistically weaker | – | – |
| CC(=O)OCC(C)C [F, isobutyl acetate] | 0.78 | 0.987 | 0.70 | 0.86 | more attractive than the peanut butter standard | statistically weaker | – | – |
| CC(C)CC(=O)O [D, Isopentanoic acid] | – | – | – | – | less attractive than the peanut butter standard and the control | – | – | – |
| Cc1nc(C)c(C)nc1C [H, Tetramethylpyrazine] | – | – | – | – | less attractive than the peanut butter standard but more attractive than the control | – | – | – |
| CC(=O)C(C)O (stereo not drawn) [C, acetoin] | 0.50 | 0.96 | 0.58 | 0.94 | more attractive than the peanut butter standard | – | 0.20 | – |
| Cc1nccnc1C [E, 2,3-dimethylpyrazine] | – | – | – | – | less attractive than the peanut butter standard and the control | – | – | – |
| CC(=O)OCCC(C)C [G, Isopentyl acetate] | – | – | – | – | less attractive than the peanut butter standard and the control | – | – | no trend |
| CCC(C)COC(C)=O (stereo not drawn) [I, 2-methylbutyl acetate] | 0.48 | 0.95 | 0.84 | 0.88 | more attractive than the peanut butter standard | – | – | – |
